Test results as given in publication PMC6268546, “A PAMPA Assay as Fast Predictive Model of Passive Human Skin Permeability of New Synthesized Corticosteroid C-21 Esters” (Molecules, 2012).

Columns and labels:
[1] = PAMPA test (skin permeability model); settings: 70% silicone oil-30% IPM membrane, 7 h incubation, 100 μM in 5% DMSO phosphate buffer pH 7, triplicate mean
Method: The study was performed in triplicate and the results are presented as mean values. After the PAMPA tests was performed, a HPLC method was used to measure the concentrations of the investigated corticosteroids: the initial concentration–CD(0) in the starting solution, the residual concentration–CD(t) in the donor compartment (7 h after incubation) and the transferred concentration–CA(t) in the acceptor compartment (7 h after incubation). The assay was performed using the previously described HPLC method with mobile phase modification for determination of standard corticosteroids. The mobile phase modification was introduced to achieve complete separation standard corticosteroids peak from DMSO peak, which was used as cosolvent. DMSO was used as cosolvent with the aim of increasing the corticosteroid C-21 esters’ solubility. DMSO is one of the earliest and most widely studied penetration enhancers for transdermal drug delivery systems.
On the basis of the initial (100 μM) and calculated residual and transferred concentrations according to peak area comparison at zero time t0, the retention factors–R and permeability coefficients–logPe of investigated corticosteroids were obtained.
Phosphate buffer (pH = 7) was prepared by dissolving NaH2PO4·H2O (1.167 g) and Na2HPO4·7H2O (3.093 g) in water (1000 mL) with the fixed total concentration of 20 mM. The 5% DMSO solution were prepared dissolving DMSO in phosphate buffer. The corticosteroid solutions were prepared dissolving the investigated corticosteroid standards as well as new synthesized corticosteroid C-21 esters in 5% DMSO solution. […] An aliquot of previously prepared mixture (3.5 mL, 7 mL silicone oil and 3 mL IPM) was transferred into a 10 mL volumetric flask, dissolved and fill up to mark with n-hexane.
Permeation experiments were carried out in hydrophobic PVDF 96-well filter plates (Millipore, Molsheim, France). […] Next, in each well of acceptor plate, 5% DMSO solution (400 μL) was transferred with an automatic pipette and covered by the donor plate, creating a PAMPA sandwich. In each well of the donor plate solutions of the tested corticosteroid in 5% DMSO solution (100 μM, 300 μL) was transferred by the use of an automatic pipette. Each substance was measured in triplicate at iso-pH conditions (the same pH value in donor and receptor compartment). The donor plate was covered to prevent evaporation and the whole system set up to interact with the vibratory mixer. After 7 h, PAMPA sandwich was removed from the mixer and vibration, and using the HPLC method the concentration of the investigated substances in the donor and receptor compartments were determined. The HPLC method used was as previously described but with some necessary modifications. A mobile phase of methanol–water (75:25 v/v) was used for analysis of corticosteroid C-21 esters, while the mobile phase methanol–water (50:50 v/v) was used for the analysis of unesterified corticosteroids to increase their retention time and prevent overlapping with the DMSO peak. Other HPLC parameters were as previously described. The concentrations of each tested corticosteroid in the appropriate time interval in the donor and acceptor compartments were calculated using the method of comparing the peak area of the initial concentration at zero time t0.
The values of permeability coefficients–logPe and retention factors–R of examined corticosteroids were calculated using equations (2) and (3). The retention factor, R can be defined as the mole fraction retained in the membrane and in the microplates (i.e., filters and plate materials): [drawing 1] (2) where CA(t)/CD(0) represents the amount of compound that reached the acceptor compartment after incubation time t (for VA = VD): […]

[2] = approximate logKp (permeability coefficient through human skin) calculated from logPe by equation (1); settings: logKp = 1.34 logPe + 0.28, from PAMPA logPe
Source text: Ottaviani and coworkers predicted skin permeation of numerous compounds applying a new membrane (70% silicone oil and 30% IPM) in the PAMPA test and presented permeate classifications on the basis of available literature permeability coefficients through human skin, logKp.
The proposed equation for correlation between logKp and logPe for 31 investigated compounds was: […]

[3] = set-up: method as in PMID 16789751; settings: 70% silicone-30% IPM membrane, 7 h; cited from earlier work

C[C@@H]1C[C@H]2[C@@H]3CCC4=CC(=O)C=C[C@]4(C)[C@@]3(F)[C@@H](O)C[C@]2(C)[C@@]1(O)C(=O)CO [DEX, dexamethasone, reference compound]
permeation parameter CA(t)/CD(0) [1]: 1.3 ± 0.8% | retention factor R (membrane retention) [1]: 4.2 ± 2.0% | logKp (approximate, calculated) [2]: −7.75 | logPe previously reported [3]: −5.75
